Measurements published in paper PMC6364417, “Kinase inhibitor library screening identifies synergistic drug combinations effective in sensitive and resistant melanoma cells” (Journal of Experimental & Clinical Cancer Research : CR, 2019).

Experiments:
Test in all cases: Kinase inhibitor library screening, PrestoBlue cell viability, 1 or 10 μM, 72 h
501Mel cells (parental) = settings: 501Mel Parental, 72 h, in %
Method in brief: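 Treatment: 72 h with inhibitor. Detection: PrestoBlue, plate reader. Output: viability as % untreated control. Replicates: duplicate minimum. Lines: parental plus Vemurafenib- or Dabrafenib-resistant derivatives.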

[1] = tested on: 501Mel-GP cells (Dabrafenib-resistant); settings: 501Mel GP, 72 h, in %
[2] = tested on: 501Mel-XP cells (Vemurafenib-resistant); settings: 501Mel XP, 72 h, in %
A375 cells (parental) = settings: A375 Parental, 72 h
[3] = tested on: A375-GP cells (Dabrafenib-resistant); settings: A375 GP, 72 h
[4] = tested on: A375-XP cells (Vemurafenib-resistant); settings: A375 XP, 72 h
IGR37 cells (parental) = settings: IGR37 Parental, 72 h, in %
[5] = tested on: IGR37-GP cells (Dabrafenib-resistant); settings: IGR37 GP, 72 h; for Cell viability in kinase inhibitor library screening, IGR37 GP, 1μΜ: in %
[6] = tested on: IGR37-XP cells (Vemurafenib-resistant); settings: IGR37 XP, 72 h

| Compound | Cell viability in kinase inhibitor library screening, 501Mel Parental, 1μΜ (501Mel cells (parental); 1μΜ) | Cell viability in kinase inhibitor library screening, 501Mel Parental, 10μΜ (501Mel cells (parental); 10μΜ) | Cell viability in kinase inhibitor library screening, 501Mel GP, 1μΜ ([1]; 1μΜ) | Cell viability in kinase inhibitor library screening, 501Mel GP, 10μΜ ([1]; 10μΜ) | Cell viability in kinase inhibitor library screening, 501Mel XP, 1μΜ ([2]; 1μΜ) | Cell viability in kinase inhibitor library screening, 501Mel XP, 10μΜ ([2]; 10μΜ) | Cell viability in kinase inhibitor library screening, A375 Parental, 10μΜ (A375 cells (parental); 10μΜ) | Cell viability in kinase inhibitor library screening, A375 Parental, 1μΜ (A375 cells (parental); 1μΜ) | Cell viability in kinase inhibitor library screening, A375 GP, 1μΜ ([3]; 1μΜ) | Cell viability in kinase inhibitor library screening, A375 GP, 10μΜ ([3]; 10μΜ) | Cell viability in kinase inhibitor library screening, A375 XP, 1μΜ ([4]; 1μΜ) | Cell viability in kinase inhibitor library screening, A375 XP, 10μΜ ([4]; 10μΜ) | Cell viability in kinase inhibitor library screening, IGR37 Parental, 10μΜ (IGR37 cells (parental); 10μΜ) | Cell viability in kinase inhibitor library screening, IGR37 GP, 10μΜ ([5]; 10μΜ) | Cell viability in kinase inhibitor library screening, IGR37 GP, 1μΜ [5] | Cell viability in kinase inhibitor library screening, IGR37 XP, 10μΜ ([6]; 10μΜ) | Cell viability in kinase inhibitor library screening, IGR37 XP, 1μΜ ([6]; 1μΜ, in %) | also measured |
| --- | --- | --- | --- | --- | --- | --- | --- | --- | --- | --- | --- | --- | --- | --- | --- | --- | --- | --- |
| NCC(=O)Nc1ccc(-n2nc(C(F)(F)F)cc2-c2ccc3c(ccc4ccccc43)c2)cc1 [OSU-03012] | 91.0 | 0.3 | 94.0 | -0.274 | 90.0 | -0.352 | 0.756 | 91.6 | 89.7 | 0.547 | 91.6 | 0.7 | 0.5 | 2.3% | 99.0 | 1.4% | 109.9 |  |
| COc1cc2ncnc(Nc3cccc(Br)c3)c2cc1OC.Cl [PD153035 HCl] |  |  |  |  |  |  |  |  |  |  |  |  |  |  |  |  |  | cell viability, 501Mel Parental, 1μΜ (501Mel cells (parental); 1μΜ): 107.0; cell viability, 501Mel Parental, 10μΜ (501Mel cells (parental); 10μΜ): 38.0; cell viability, 501Mel GP, 1μΜ ([1]; 1μΜ): 110.1; cell viability, 501Mel GP, 10μΜ ([1]; 10μΜ): 28.5; cell viability, 501Mel XP, 1μΜ ([2]; 1μΜ): 99.4; cell viability, 501Mel XP, 10μΜ ([2]; 10μΜ): 16.6; cell viability, A375 Parental, 1μΜ (A375 cells (parental); 1μΜ, in %): 108.8; cell viability, A375 Parental, 10μΜ (A375 cells (parental); 10μΜ, in %): 108.3; cell viability, A375 GP, 1μΜ ([3]; 1μΜ, in %): 106.0; cell viability, A375 GP, 10μΜ ([3]; 10μΜ, in %): 105.2; cell viability, A375 XP, 1μΜ ([4]; 1μΜ, in %): 108.7; cell viability, A375 XP, 10μΜ ([4]; 10μΜ, in %): 97.5; cell viability, IGR37 Parental, 1μΜ (IGR37 cells (parental); 1μΜ): 115.8; cell viability, IGR37 Parental, 10μΜ (IGR37 cells (parental); 10μΜ): 42.8; cell viability, IGR37 GP, 10μΜ ([5]; 10μΜ): 73.7%; cell viability, IGR37 XP, 10μΜ ([6]; 10μΜ): 30.6%; cell viability, IGR37 XP, 1μΜ ([6]; 1μΜ, in %): 82.2 |
| CCCS(=O)(=O)Nc1ccc(F)c(C(=O)c2c[nH]c3ncc(-c4ccc(Cl)cc4)cc23)c1F [Vemurafenib (PLX4032)] | 65.5 | 61.7 | 104.7 | 81.3 | 94.9 | 68.0 | 14.6 | 28.6 | 92.1 | 68.9 | 98.7 | 76.6 | 34.4 | 88.3% | 94.0 | 67.9% | 97.0 | Cell viability in kinase inhibitor library screening, IGR37 Parental, 1μΜ (IGR37 cells (parental); 1μΜ): 43.2 |
